These results are taken from ChEMBL document CHEMBL4052585 (J Med Chem, 2017).

In brackets after ≈: the same amount, converted by molar mass.

Data set [1] has as its target T1, Mitogen-activated protein kinase kinase kinase 14 (Homo sapiens, UniProt Q99558). The experiment in a line: Binding affinity to NIK (unknown origin) by SPR method. A general note: In SPR one partner is held on a chip, and binding of the other changes the refractive index at the surface.
Data set [2] has as its target PI3-kinase p110-delta/p85-alpha (Homo sapiens, UniProt O00329). The experiment in a line: Inhibition of N-terminal His6-tagged recombinant full-length human p110delta/untagged recombinant full length human p85alpha expressed in baculovirus infected Sf21 insect cells using PIP2:3PS lipid substrate after 120 mins by ADP-Glo assay.
Data set [3] has as its target T1, Mitogen-activated protein kinase kinase kinase 14. The experiment in a line: Inhibition of NIK (unknown origin) after 1 to 2 hrs by ADP-FP assay.
The nature of another data set: physchem. The conditions noted are these: buffer, pH 7.4.
Data set [4] in a line: Oral bioavailability in Sprague-Dawley rat at 5 mg/kg. The format is ADME, organism-based. As to conditions: in vivo.
The next data set has as its system HEK293. Briefly: Cytotoxicity against HEK293 cells assessed as effect on cell viability after 24 hrs by HSV-TK reporter assay. It is filed as cell-based. As to conditions: Homo sapiens, HEK293, 24 h.
Data set [5] in a line: Plasma clearance in beagle dog. The format is ADME, Canis lupus familiaris.
Data set [6] is described as follows: Volume of distribution in beagle dog. It is filed as ADME, Canis lupus familiaris. As to conditions: in vivo.
Data set [7] is described as follows: Volume of distribution in cynomolgus monkey. The format is ADME, Macaca fascicularis. The conditions noted are these: in vivo.
Data set [8] is described as follows: Plasma clearance in Sprague-Dawley rat. The format is ADME.
In data set [9] the target is T1, Mitogen-activated protein kinase kinase kinase 14. Briefly: Inhibition of NIK in human HeLa cells assessed as decrease in antilymphotoxin-beta receptor antibody-stimulated p52 translocation from cytoplasm to nucleus after 5 hrs. It is filed as cell-based.
A short description of data set [10]: Thermodynamic solubility of compound at pH 7.4. The format is physicochemical. The conditions noted are these: buffer, read-out: Therm_solubility.
Data set [11] is described as follows: Oral bioavailability in beagle dog at 5 mg/kg. The format is ADME, organism-based, Canis lupus familiaris. The conditions noted are these: in vivo.
Data set [12] is described as follows: Protein binding in human plasma. It is filed as ADME, cell-free. As to conditions: read-out: PPB (converted).
Data set [13] can be described thus: Apparent permeability across MDCK cells at 100 uM. The format is ADME, cell-based, Canis lupus familiaris. As to conditions: dog.
Data set [14] has as its target T1, Mitogen-activated protein kinase kinase kinase 14. Briefly: Inhibition of NIK (unknown origin) expressed in HEK293 cells assessed as decrease in NFkappaB signal after 24 hrs by dual glo luciferase reporter gene assay. It is filed as cell-based.
Data set [15] in a line: Plasma clearance in cynomolgus monkey. The format is ADME, Macaca fascicularis.
The nature of data set [16]: Volume of distribution in Sprague-Dawley rat. It is filed as ADME. As to conditions: in vivo.

Chain of PI3-kinase p110-delta/p85-alpha (P27986 whole entry): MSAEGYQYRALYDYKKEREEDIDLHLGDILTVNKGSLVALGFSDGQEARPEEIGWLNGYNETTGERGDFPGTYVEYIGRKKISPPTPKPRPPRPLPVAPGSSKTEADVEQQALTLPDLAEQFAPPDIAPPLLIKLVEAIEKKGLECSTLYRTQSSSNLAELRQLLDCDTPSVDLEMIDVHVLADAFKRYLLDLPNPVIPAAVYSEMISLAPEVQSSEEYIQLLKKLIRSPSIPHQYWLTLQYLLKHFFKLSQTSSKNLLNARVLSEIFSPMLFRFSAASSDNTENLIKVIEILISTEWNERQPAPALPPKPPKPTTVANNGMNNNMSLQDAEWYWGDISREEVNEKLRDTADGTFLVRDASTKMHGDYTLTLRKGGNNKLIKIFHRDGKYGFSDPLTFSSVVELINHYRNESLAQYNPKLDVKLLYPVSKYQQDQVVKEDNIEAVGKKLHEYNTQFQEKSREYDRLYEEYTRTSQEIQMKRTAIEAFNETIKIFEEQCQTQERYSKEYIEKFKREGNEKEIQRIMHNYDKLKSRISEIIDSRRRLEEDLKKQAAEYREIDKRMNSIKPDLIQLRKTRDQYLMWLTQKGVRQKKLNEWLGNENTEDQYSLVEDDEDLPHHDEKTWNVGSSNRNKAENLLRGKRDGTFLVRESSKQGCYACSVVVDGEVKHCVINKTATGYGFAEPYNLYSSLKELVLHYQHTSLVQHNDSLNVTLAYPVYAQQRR
Chain of PI3-kinase p110-delta/p85-alpha (O00329 whole entry): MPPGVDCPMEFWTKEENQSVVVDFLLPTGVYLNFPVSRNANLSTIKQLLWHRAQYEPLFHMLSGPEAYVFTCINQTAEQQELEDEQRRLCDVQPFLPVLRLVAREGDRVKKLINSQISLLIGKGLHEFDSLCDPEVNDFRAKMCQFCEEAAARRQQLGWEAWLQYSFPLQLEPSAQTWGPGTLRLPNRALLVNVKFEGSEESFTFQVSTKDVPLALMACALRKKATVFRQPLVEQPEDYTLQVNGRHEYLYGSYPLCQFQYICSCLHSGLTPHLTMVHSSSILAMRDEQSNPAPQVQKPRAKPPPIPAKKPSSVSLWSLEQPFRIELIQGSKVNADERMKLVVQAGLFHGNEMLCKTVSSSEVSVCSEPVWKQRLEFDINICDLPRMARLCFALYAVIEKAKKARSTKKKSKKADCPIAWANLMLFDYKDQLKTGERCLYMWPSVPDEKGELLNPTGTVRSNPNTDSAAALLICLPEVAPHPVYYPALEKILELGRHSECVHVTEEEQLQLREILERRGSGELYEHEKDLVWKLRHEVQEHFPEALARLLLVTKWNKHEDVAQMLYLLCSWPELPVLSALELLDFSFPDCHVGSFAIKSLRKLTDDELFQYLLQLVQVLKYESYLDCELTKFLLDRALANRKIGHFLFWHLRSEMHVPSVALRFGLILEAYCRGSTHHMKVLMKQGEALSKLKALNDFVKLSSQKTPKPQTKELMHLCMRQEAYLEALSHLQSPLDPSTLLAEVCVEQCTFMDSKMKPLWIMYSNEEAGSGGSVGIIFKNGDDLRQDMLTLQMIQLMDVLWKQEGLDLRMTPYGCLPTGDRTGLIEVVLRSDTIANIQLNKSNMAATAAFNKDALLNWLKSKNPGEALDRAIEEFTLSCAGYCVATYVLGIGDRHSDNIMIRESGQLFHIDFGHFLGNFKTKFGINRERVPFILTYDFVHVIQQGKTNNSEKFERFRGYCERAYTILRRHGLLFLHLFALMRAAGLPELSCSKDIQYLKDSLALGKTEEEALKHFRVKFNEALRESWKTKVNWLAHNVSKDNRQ
T1 sequence (Q99558 whole entry): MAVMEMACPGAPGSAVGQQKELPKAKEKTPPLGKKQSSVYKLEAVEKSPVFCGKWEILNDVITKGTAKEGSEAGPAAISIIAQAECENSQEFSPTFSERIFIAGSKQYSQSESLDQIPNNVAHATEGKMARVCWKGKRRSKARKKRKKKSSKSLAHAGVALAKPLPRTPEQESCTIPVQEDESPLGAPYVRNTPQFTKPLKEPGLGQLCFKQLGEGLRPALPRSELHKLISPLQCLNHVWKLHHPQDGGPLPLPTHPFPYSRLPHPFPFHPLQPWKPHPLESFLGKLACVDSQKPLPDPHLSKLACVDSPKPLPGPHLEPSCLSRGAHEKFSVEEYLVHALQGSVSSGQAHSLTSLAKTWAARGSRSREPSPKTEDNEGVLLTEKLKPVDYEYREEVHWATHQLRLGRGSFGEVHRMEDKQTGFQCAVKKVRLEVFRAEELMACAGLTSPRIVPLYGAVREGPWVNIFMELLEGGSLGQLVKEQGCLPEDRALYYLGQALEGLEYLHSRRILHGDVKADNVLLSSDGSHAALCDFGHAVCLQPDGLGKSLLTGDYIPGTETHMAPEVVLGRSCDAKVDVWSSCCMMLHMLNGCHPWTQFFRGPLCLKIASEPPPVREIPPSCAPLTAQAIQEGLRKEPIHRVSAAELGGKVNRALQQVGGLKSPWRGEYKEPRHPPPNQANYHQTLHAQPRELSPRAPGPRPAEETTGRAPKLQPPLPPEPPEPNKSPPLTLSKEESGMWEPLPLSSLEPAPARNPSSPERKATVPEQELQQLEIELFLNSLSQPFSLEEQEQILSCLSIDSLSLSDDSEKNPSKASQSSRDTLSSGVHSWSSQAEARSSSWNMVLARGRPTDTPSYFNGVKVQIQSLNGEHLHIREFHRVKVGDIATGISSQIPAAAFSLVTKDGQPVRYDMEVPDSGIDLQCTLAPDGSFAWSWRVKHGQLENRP

In the case of `NC(=O)c1cccn1Cc1ccccc1Cl`, in data set [1], the Kd – broadly, the concentration at which binding is half-saturated – stood at 69000 nM.

Consider `CC(C)(O)C#Cc1ccc2c(c1)-c1nc(C(N)=O)cn1CCO2`, for which the inhibitory constant (Ki) (commonly the dissociation constant of the complex between target and ligand, obtained from inhibition or displacement) in data set [2] was 320 nM; in [3], 310 nM. In addition, in the data set “physchem”, the logD (usually lipophilicity at a set pH, counting ionised and neutral species) was 1.4.

For the compound `CC(C)(O)C#Cc1ccc2c(c1)-c1nc(C(N)=O)sc1CCO2`, the inhibition constant (Ki) in data set [2] was found to be 216 nM; in data set [3], 28 nM. The same compound gave a logD in the data set “physchem” of 2.4.

Consider `CC(C)(O)C#Cc1cc2c(cc1F)OCCn1cc(C(N)=O)nc1-2`, for which the Ki in data set [3] is 36 nM. The same compound returned a pH-dependent lipophilicity (logD) in the data set “physchem” of 1.7.

With `NC(=O)c1cn2c(n1)-c1cc(C#CC3(O)CCC3)c(F)cc1OCC2`, the Ki in data set [3] is 20.2 nM. This compound also returned a logD in “physchem” of 3.4.

As to `CC(C)(O)C#Cc1cc2c(cc1F)OCCn1c-2nc(C(N)=O)c1Cc1ccccc1F`, the inhibition constant (Ki) in data set [2] was above 1000 nM; in data set [3], 7.5 nM. In “physchem”, this compound displayed a logD of 3.4.

On to `CC(C)(O)C#Cc1ccc2c(c1)-c1nc(C(N)=O)sc1C(F)(F)CO2`, for which the Ki was above 1000 nM in data set [2] and 40 nM in data set [3].

Turning to `CC(C)(O)C#Cc1cc2c(cc1F)OCCn1c-2nc(C(N)=O)c1C#N`, the Ki was above 1000 nM in [2] and 201 nM in data set [3]. In “physchem”, this compound came in with a logD of 1.6.

Consider `Cc1c(C(N)=O)nc2n1CCOc1cc(F)c(C#CC(C)(C)O)cc1-2`, for which the Ki is above 1000 nM in data set [2] and 35.5 nM in [3]. Also, in the data set “physchem”, the logD came to 2.2.

As to `CC(C)(O)C#Cc1cc2c(cc1F)OCCn1c-2nc(C(N)=O)c1C1CC1`, the values for the Ki in data set [2] and in data set [3] were above 1000 nM and 41 nM, respectively. Also, the logD in “physchem” came to 1.9.

On to `CNC(=O)c1c(C(N)=O)nc2n1CCOc1cc(F)c(C#CC(C)(C)O)cc1-2`, for which the Ki in data set [2] was above 1000 nM; in [3], 2 nM. In addition, the log distribution coefficient (logD) in the data set “physchem” came to 2.5.

Regarding `CC(C)(O)C#Cc1cc2c(cc1F)OCCn1c-2nc(C(N)=O)c1-c1cn[nH]c1`, the Ki was above 1000 nM in [2] and 7 nM in data set [3]. Moreover, the pH-dependent lipophilicity (logD) in the data set “physchem” was 1.8.

In the case of `CN(C)C(=O)c1c(C(N)=O)nc2n1CCOc1cc(F)c(C#CC(C)(C)O)cc1-2`, in [2], the Ki is above 1000 nM. The log distribution coefficient (logD) in the data set “physchem” turned out to be 1.4.

The compound `CN(C)C(=O)C(C)(O)C#Cc1cc2c(cc1F)OCCn1cc(C(N)=O)nc1-2` (centres undefined) displayed a Ki in data set [3] of 986 nM. This compound showed a logD in the data set “physchem” of 1.4.

As to `NC(=O)c1cn2c(n1)-c1cc(C#CC3(O)COC3)c(F)cc1OCC2`, the inhibition constant Ki in data set [3] turned out to be 4280 nM. Further, in the data set “physchem”, the logD turned out to be 1.2.

Turning to `CNC(=O)c1c(C(N)=O)nc2n1CCOc1ccc(C#C[C@@](C)(O)c3cc(C)on3)cc1-2`, the bioavailability in [4] was 51%; in data set [11], 140%. The values for the concentration for half-maximal inhibition (IC50) (in the data set on HEK293; in data set [9]; in [14]) were 13000 nM, 67 to 87 nM and 40 nM, respectively. The results for the clearance in data set [5], in [8] and in data set [15] were 7 mL/min/kg, 7 mL/min/kg and 21 mL/min/kg, respectively. Moreover, the figures for the Vd in [6], in data set [7] and in data set [16] were 1.1 L/kg, 0.9 L/kg and 1.4 L/kg, respectively. Also, in data set [10], the solubility thermodynamic came to 9 µg/mL (≈ 20.7 µM). Also, the values for the Ki in data set [2] and in data set [3] were above 1000 nM and 0.47 nM, respectively. Also, the fraction unbound in data set [12] was 0.06. Further, the Papp (usually the rate of passage across a membrane or cell layer, normalised by area and donor concentration) at 100 µM in [13] is 7.5 ×10⁻⁶ cm/s. The logD in the data set “physchem” amounted to 3.

On to `CC(C)(O)C#Cc1ccc2c(c1)-c1nc(C(N)=O)cn1C1CC2C1`, for which the Ki was above 1000 nM in data set [2] and 20 nM in data set [3].

For the compound `C[C@H]1Cn2cc(C(N)=O)nc2-c2cc(C#CC(C)(C)O)ccc2O1`, the Ki in [2] was above 1000 nM.

As for `C[C@@H]1Cn2cc(C(N)=O)nc2-c2cc(C#CC(C)(C)O)ccc2O1`, in data set [2], the Ki was above 1000 nM.

For the compound `CN1CC[C@@](O)(C#Cc2cc3c(cc2F)OCCn2cc(C(N)=O)nc2-3)C1=O`, the logD in “physchem” is 0.74.

`CN1CC[C@](O)(C#Cc2cc3c(cc2F)OCCn2cc(C(N)=O)nc2-3)C1=O` had a logD in the data set “physchem” of 0.94.

Regarding `Cn1nccc1Cc1c(C(N)=O)nc2n1CCOc1cc(F)c(C#CC(C)(C)O)cc1-2`, the Ki in data set [2] was above 1000 nM; in data set [3], 9.9 nM.

As for `CC(C)(O)C#Cc1cc2c(cc1F)C1CC(C1)n1cc(C(N)=O)nc1-2`, the inhibition constant Ki in [2] is above 1000 nM; in [3], 2.9 nM.

For the compound `Cc1cc([C@](C)(O)C#Cc2cc3c(cc2F)C2CC(C2)n2cc(C(N)=O)nc2-3)no1`, the bioavailability in data set [4] stood at 27%. For the same compound, the IC50 (commonly the point on the concentration scale where inhibition reaches its midpoint) was above 20000 nM in the data set with HEK293, 199 nM in data set [9] and 102 nM in data set [14]. Moreover, the Vd (commonly the apparent volume that relates the amount in the body to the concentration in plasma or blood) in data set [7] came out at 1.9 L/kg; in data set [16], 0.84 L/kg. Also, the values for the clearance in data set [8] and in [15] were 24 mL/min/kg and 13 mL/min/kg, respectively. Further, the solubility thermodynamic in data set [10] stood at 32 µg/mL (≈ 78.7 µM). The Ki in data set [2] is above 1000 nM; in data set [3], 0.4 nM. Besides, the fraction unbound in data set [12] was 0.09. In data set [13], the Papp at 100 µM amounted to 10.1 ×10⁻⁶ cm/s. Moreover, the logD in “physchem” was determined as 3.3.

In the case of `NC(=O)c1ccc2c(n1)-c1sccc1CCO2`, the Ki in [3] was determined as 1280 nM. Also, the logD in the data set “physchem” amounted to 2.5.

Take `Cc1cc([C@](C)(O)C#Cc2cc3c(cc2F)OCCn2cc(C(N)=O)nc2-3)no1`: the IC50 is above 20000 nM with HEK293, 607 nM in data set [9] and 156 nM in data set [14]. The Ki in data set [2] was determined as 47 nM. In addition, the logD in the data set “physchem” amounted to 1.1.

Take `CC(C)(O)C#Cc1ccc2c(c1)-c1nc(C(N)=O)sc1C(O)CO2` (racemic): the Ki in [2] is above 1000 nM; in data set [3] it was 101 nM.

For the compound `CC(O)(C#Cc1cc2c(cc1F)OCCn1cc(C(N)=O)nc1-2)CF` (racemic), the inhibition constant Ki in data set [3] was 8.7 nM.

Regarding `CC(O)(C#Cc1cc2c(cc1F)OCCn1cc(C(N)=O)nc1-2)c1cccnn1` (racemic), in data set [3], affinity was put at a Ki of 3.2 nM. The same compound registered a pH-dependent lipophilicity (logD) in the data set “physchem” of 1.4.

In [3], `CN1CCCC(O)(C#Cc2cc3c(cc2F)OCCn2cc(C(N)=O)nc2-3)C1=O` (racemic) came in with a Ki of 3 nM. In addition, in “physchem”, the logD was 1.5.

`CC(O)(C#Cc1cc2c(cc1F)OCCn1cc(C(N)=O)nc1-2)c1nccs1` (racemic) had a Ki in data set [3] of 1.5 nM. The same compound registered a logD in the data set “physchem” of 2.4.
